Data reported in patent US12624057B2, “Bisphosphonate quinolone conjugates and uses thereof” (BIOVINC, LLC, priority 2016, dated 2026).
Converted amounts (≈) assume the structure as drawn. “Also recorded” adds a separate entry of the source.

Legend:
[1] = test system: Aggregatibacter actinomycetemcomitans biofilms on titanium implants; experiment: Rat jawbone peri-implant osteomyelitis model, second animal experiment; conditions: for reduction of mean CFU/gram of tissue versus control (in words): single high dose 10 mg/kg, 10 mg/kg
[2] = test system: planktonic S. aureus strain ATCC-6538; experiment: Antimicrobial susceptibility testing in acidic versus basic/physiological pH; format: cell-based, Staphylococcus aureus; conditions: acidic (pH 5) versus basic/physiological (pH 7.4)
Experimental: (§1) Antimicrobial susceptibility testing of BP-ciprofloxacin against planktonic cultures of S. aureus strain ATCC-6538 in acidic versus basic pH: This experimental setting was performed in the same manner as described previously for disc diffusion testing, but microbiological media was adjusted to pH 7.4 and pH 5 using KOH or HCL solution and measured using a universal pH-indicator (Merck, Poland).
as §1, with “6” for “BP-ciprofloxacin”, “physiological” for “basic”

[3] = test system: biofilms of Aggregatibacter actinomycetemcomitans grown on HA; experiment: Aa biofilms grown on HA; format: cell-based
[4] = In vivo tolerability during the rat peri-implant osteomyelitis studies; set-up: species or system Sprague-Dawley rats; conditions: intraperitoneal
Source text: To determine appropriate dosing concentrations, we calculated approximate initial doses for the conjugate based on previous studies and pharmacokinetic data using similar target and release strategies and also rodents (Houghton, et al., Linking bisphosphonates to the free amino groups in fluoroquinolones: preparation of osteotropic prodrugs for the prevention of osteomyelitis. J Med Chem 2008; 51:6955-69; Morioka, et al., Design, synthesis, and biological evaluation of novel estradiol-bisphosphonate conjugates as bone-specific estrogens. Bioorg Med Chem 2010; 18:1143-8). We expected that increasing doses of 0.1, 1 and 10 mg/kg BP-ciprofloxacin molar equivalents will allow us to determine antimicrobial activity in 2 test animals per group based on sample size estimations and previous experience with the animal model (Freire, et al, Development of animal model for Aggregatibacter actinomycetemcomitans biofilm-mediated oral osteolytic infection: a preliminary study. J Periodontol 2011; 82:778-89). Animals were dosed via intraperitoneal injection under general anesthesia, and all compounds were constituted in sterile physiological injectable saline at appropriate pH. One week after pharmacotherapy, all animals were sacrificed and resection of peri-implant tissues was performed, and tissues were immediately homogenized and processed for quantitative assessment of microbial load. Animals were monitored throughout the study period for local or systemic adverse effects of pharmacotherapy.
To determine appropriate dosing concentrations, approximate initial doses were calculated for the conjugate based on previous studies and pharmacokinetic data using similar target and release strategies also in rodents.^13, 26 Increasing doses of 0.1, 1 and 10 mg/kg molar equivalents of 6 can allow for determination of antimicrobial activity in 2 test animals per group based on sample size estimations and previous experience with the animal model.^32 Animals were dosed via intraperitoneal injection under general anesthesia, and all compounds were constituted in sterile physiological injectable saline at appropriate pH.

[5] = test system: Aggregatibacter actinomycetemcomitans (Aa; wild-type rough strain D7S-1; serotype a); experiment: MIC assay on Aa; format: cell-based
Source text: Since this BP-ciprofloxacin conjugate is novel and has not been tested in vivo, we performed an initial safety and efficacy study in an animal model of peri-implant osteomyelitis. This model is a unique in-house jawbone peri-implant osteomyelitis model that was developed specifically for translational value to study biofilm-mediated disease and host response in vivo (Freire, et al, Development of animal model for Aggregatibacter actinomycetemcomitans biofilm-mediated oral osteolytic infection: a preliminary study. J Periodontol 2011; 82:778-89). […] After biofilms are established on the implants in vitro, they are surgically transferred to the jawbone of each rat. Animals are anesthetized, the cheeks are retracted and a transmucosal osteotomy is performed so implants can be manually inserted into the osteotomy and secured. Two biofilm-inoculated implants are placed in each rat (n=12 rats and 24 implants) in the palatal bone bilaterally.
Subsequently, the plate was incubated for 24 h/37° C. in a shaker to obtain optimal conditions for microbial growth and to prevent bacteria from forming biofilms. After incubation, the absorbance was measured once again. The following control samples were established: negative control sample one: sterile medium without microbes; negative control sample two: sterile medium without microbes implemented with DMSO (dimethyl sulfoxide, Sigma-Aldritch) to final concentration of 1% (v/v); positive control sample one: medium+microbes with no compound tested; positive control sample two: medium+microbes with no compound tested but implemented with DMSO to final concentration of 1% (v/v). […] To assess relative number of cells, the following calculations were performed. […] Next, the relative number of cells subjected to incubation with tested compounds were counted as follows: […].
After biofilms were established on the implants in vitro, they were surgically transferred to the jawbone of each rat. […]

Structure (SMILES)	peri-implant inflammation at resection (in words) ([1]; majority of animals in the treatment groups)	significance of CFU reduction versus control (in words) ([1]; multiple low dose 0.3 mg/kg 3×/week)	kill of Aa in peri-implant tissue ([1]; single dose 10 mg/kg)	reduction of mean CFU/gram of tissue versus control (in words) [1]	reduction of mean CFU/gram of tissue versus control (in words) ([1]; listed as BCC)	effect of pH on antimicrobial activity / concentration to reach MIC50 [2]	effect of pH on antimicrobial activity / concentration to reach MIC50 ([2]; listed as BP-ciprofloxacin)	activity against Aa biofilm on HA (in words) [3]	concentration with effective antimicrobial profile ([3]; strain D7S-5 grown on HA) [µg/mL]	tolerability / adverse events ([4]; first animal experiment, listed as BCC)	tolerability / adverse events ([4]; first animal experiment, listed as BP-ciprofloxacin)	tolerability / adverse events ([4]; second animal experiment)	tolerability / adverse events ([4]; second animal experiment, listed as BCC)	MIC90 ([5]; Example 1) [µg/mL]	MIC90 ([5]; Example 5) [µg/mL]	MIC90 ([5]; Example 6) [µg/mL]
O=C(O)c1cn(C2CC2)c2cc(N3CCN(C(=O)Oc4ccc(CC(P(=O)(O)O)P(=O)(O)O)cc4)CC3)c(F)cc2c1=O [Compound 6, 1-cyclopropyl-7-(4-((4-(2,2-diphosphonoethyl)phenoxy)carbonyl)piperazin-1-yl)-6-fluoro-4-oxo-1,4-dihydroquinoline-3-carboxylic acid]	non-inflamed peri-implant tissues	not for the multiple low dose group	approximately 6 log units	revealed significance for the single high dose of 6 treatment as compared to the control; also recorded: greatest CFU reduction and efficacy was observed at the single high dose; also recorded: greatest efficacy was observed at a single high dose	greatest efficacy and was highly statistically significant; also recorded: greatest efficacy was again observed at a single high dose	half the conjugate concentration; also recorded: slightly improved profile in acidic conditions	half the conjugate concentration; also recorded: improved bactericidal profile in acidic	effective antimicrobial activity	> 15	no potential systemic toxicity or adverse effects	safety and efficacy was demonstrated in vivo	no signs of gross tolerability issues during therapy	tolerated treatment and pharmacotherapy well with no adverse events			
O=C(O)c1cn(C2CC2)c2cc(N3CCNCC3)c(F)cc2c1=O [ciprofloxacin, reference compound]														2 (≈ 6.04 µM)	2 (≈ 6.04 µM)	2000 (≈ 6040 µM)
